The text below walks through data of BindingDB's records for patent US20250122221 (Nanjing Zaiming Pharmaceutical, 2025).

The structures appear in SMILES notation.

The target of the test is DNA polymerase theta (Homo sapiens, UniProt O75417). The test can be described thus: POLQ Enzyme Activity Inhibition Assay. Here is the method: The compounds to be tested were diluted to different concentrations in dimethyl sulfoxide (DMSO) using the Echo 650 pipetting system, and transferred to a 384-well plate, 20 μL/well of 100 nM POLQ was added, and the mixture was incubated at room temperature for 15 minutes. […] 20 μL/well of reaction mixture solution was added to start the enzyme reaction. […] The concentration range was from 10 μM to 0.0005 μM, and the final concentration of DMSO in the system was 0.2% v/v. The 384-well plate was reacted at room temperature for 20 minutes, and then the OD value at 340 nm was read with an Envision microplate reader.
DNA polymerase theta, sequence (O75417 whole entry): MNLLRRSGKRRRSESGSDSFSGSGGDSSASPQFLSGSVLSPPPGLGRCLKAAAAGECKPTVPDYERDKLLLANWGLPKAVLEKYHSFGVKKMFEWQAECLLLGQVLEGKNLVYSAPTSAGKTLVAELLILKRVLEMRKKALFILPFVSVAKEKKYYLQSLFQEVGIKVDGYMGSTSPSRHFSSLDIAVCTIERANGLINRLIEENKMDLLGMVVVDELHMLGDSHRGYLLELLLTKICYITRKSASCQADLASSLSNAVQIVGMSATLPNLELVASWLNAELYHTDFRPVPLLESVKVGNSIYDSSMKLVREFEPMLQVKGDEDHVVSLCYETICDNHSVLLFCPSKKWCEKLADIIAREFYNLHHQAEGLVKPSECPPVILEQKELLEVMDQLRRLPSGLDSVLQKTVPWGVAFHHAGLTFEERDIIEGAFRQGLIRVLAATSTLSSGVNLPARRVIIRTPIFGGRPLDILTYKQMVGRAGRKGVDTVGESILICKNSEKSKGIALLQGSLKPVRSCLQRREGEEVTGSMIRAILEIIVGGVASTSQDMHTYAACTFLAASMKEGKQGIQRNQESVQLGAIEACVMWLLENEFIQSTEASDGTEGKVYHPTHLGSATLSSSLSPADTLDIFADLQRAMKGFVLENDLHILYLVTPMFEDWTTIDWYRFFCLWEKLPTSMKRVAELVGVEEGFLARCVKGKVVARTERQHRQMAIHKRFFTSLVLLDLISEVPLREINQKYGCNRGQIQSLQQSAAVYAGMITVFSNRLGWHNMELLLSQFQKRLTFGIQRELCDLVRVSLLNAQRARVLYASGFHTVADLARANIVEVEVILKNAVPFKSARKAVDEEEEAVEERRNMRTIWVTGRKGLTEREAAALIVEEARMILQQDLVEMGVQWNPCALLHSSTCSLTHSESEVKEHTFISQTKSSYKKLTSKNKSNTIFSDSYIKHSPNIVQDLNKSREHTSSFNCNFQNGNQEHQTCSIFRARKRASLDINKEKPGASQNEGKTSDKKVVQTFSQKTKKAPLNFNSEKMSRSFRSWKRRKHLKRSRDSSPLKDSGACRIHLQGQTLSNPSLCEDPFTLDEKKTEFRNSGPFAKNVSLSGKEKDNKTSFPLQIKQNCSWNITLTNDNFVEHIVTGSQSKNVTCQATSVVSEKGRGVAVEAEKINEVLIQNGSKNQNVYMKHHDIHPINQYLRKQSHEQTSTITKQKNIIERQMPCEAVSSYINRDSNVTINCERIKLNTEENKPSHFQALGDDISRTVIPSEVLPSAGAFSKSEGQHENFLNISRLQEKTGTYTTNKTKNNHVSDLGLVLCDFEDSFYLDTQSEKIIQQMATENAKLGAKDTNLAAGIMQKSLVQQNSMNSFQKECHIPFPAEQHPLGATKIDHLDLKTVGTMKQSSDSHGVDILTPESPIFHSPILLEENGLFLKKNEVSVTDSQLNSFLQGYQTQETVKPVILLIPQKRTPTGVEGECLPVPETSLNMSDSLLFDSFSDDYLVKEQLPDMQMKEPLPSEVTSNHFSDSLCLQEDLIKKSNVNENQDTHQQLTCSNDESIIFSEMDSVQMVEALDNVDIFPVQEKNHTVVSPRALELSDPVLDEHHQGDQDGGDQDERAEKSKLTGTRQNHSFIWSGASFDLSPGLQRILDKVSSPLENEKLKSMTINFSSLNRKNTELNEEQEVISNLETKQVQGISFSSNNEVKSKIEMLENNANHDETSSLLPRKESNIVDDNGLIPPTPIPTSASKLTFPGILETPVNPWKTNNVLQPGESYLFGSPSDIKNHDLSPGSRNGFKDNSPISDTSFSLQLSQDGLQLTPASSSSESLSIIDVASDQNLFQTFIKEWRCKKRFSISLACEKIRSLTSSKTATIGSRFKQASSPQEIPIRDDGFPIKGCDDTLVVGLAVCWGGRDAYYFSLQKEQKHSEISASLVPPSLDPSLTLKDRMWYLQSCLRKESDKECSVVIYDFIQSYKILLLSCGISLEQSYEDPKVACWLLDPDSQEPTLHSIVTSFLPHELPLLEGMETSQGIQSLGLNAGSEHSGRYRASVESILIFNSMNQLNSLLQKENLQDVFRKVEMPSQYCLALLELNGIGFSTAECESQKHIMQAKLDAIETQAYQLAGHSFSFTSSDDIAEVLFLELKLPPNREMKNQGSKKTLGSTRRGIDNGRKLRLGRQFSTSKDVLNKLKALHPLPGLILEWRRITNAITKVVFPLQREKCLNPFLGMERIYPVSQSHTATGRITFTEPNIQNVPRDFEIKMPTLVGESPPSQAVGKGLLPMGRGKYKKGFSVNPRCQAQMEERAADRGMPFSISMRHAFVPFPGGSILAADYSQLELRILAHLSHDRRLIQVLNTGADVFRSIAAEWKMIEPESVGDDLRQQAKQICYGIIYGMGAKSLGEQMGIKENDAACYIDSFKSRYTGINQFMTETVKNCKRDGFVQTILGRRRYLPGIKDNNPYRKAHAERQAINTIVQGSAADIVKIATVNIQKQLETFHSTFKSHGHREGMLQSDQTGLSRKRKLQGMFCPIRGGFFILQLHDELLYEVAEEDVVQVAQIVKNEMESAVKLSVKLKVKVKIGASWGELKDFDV

Usually IC50 stands for the midpoint of a concentration-inhibition curve. The molecule `COc1ccccc1-c1cc2c(cc1C(=O)Nc1nc3ncc(-c4ccc(C#N)cc4)nc3s1)OCO2` [US20250122221, Compound 56] returned a half-inhibitory concentration (IC50) below 100 nM.
